Assay results reported in US20060199803A1, “Compounds” (Kudos Pharmaceuticals Ltd, priority 2005, published 2006).

Molecular target: T1, mTOR protein (Homo sapiens, UniProt P42345)
T1 construct: mTOR protein was isolated from HeLa cell cytoplasmic extract by immunoprecipitation; endogenous in cells; host or cells: HeLa cell cytoplasmic extract (immunoprecipitation)
Experiment: mTOR enzyme activity assay (immunoprecipitated mTOR, recombinant PHAS-1 as substrate)
Format: biochemical
Conditions: mTOR isolated from HeLa cell cytoplasmic extract by immunoprecipitation; recombinant PHAS-1 substrate
Description: For mTOR enzyme activity assays, mTOR protein was isolated from HeLa cell cytoplasmic extract by immunoprecipitation, and activity determined essentially as described previously using recombinant PHAS-1 as a substrate (ref. 21).

SMILES	IC50
C[C@H]1COCCN1c1nc(N2CCOC(CNC(=O)c3cccs3)C2)nc2ncccc12 (stereo partly drawn) [5k]	< 1500 nM
C[C@H]1COCCN1c1nc(N2CCOC(CN3C(=O)c4cccc(N)c4C3=O)C2)nc2ncccc12 (stereo partly drawn) [5g]	< 1500 nM
COC(=O)C(=O)NCC1CN(c2nc(N3CCOC[C@@H]3C)c3cccnc3n2)CCO1 (stereo partly drawn) [5m]	< 1500 nM
C[C@H]1COCCN1c1nc(N2CCOC(COc3nccc4ccccc34)C2)nc2ncccc12 (stereo partly drawn) [5z]	< 1500 nM
c1cnc2nc(N3CCCCC3)nc(N3CCOCC3)c2c1 [4y]	< 1500 nM
C[C@@H]1CN(c2nc(N3CCOCC3)c3cccnc3n2)C[C@H](C)O1 [4c]	< 1500 nM
C[C@H]1COCCN1c1nc(N2CCOCC2c2ccccc2)nc2ncccc12 (stereo partly drawn) [4ah]	< 1500 nM
C[C@H]1COCCN1c1nc(N2CCOC(Cn3c(=O)oc4ccccc43)C2)nc2ncccc12 (stereo partly drawn) [5h]	< 1500 nM
C[C@@H]1CN(c2nc(N3CCOC[C@@H]3C)c3cccnc3n2)C[C@H](C)O1 [4af]	< 1500 nM
C[C@H]1CCCCN1c1nc(N2CCCOCC2)c2cccnc2n1 [4ab]	< 1500 nM
CCC1CCCCN1c1nc(N2CCOCC2)c2cccnc2n1 (stereo not drawn) [4n]	< 1500 nM
OCCC1CCCCN1c1nc(N2CCOCC2)c2cccnc2n1 (stereo not drawn) [4o]	< 1500 nM
C[C@H]1COCCN1c1nc(N2CCOC(c3ccccc3)C2)nc2ncccc12 (stereo partly drawn) [4ag]	< 1500 nM
NC(=O)C1CCN(c2nc(N3CCOCC3)c3ccncc3n2)CC1 [4d]	< 1500 nM
FC(F)(F)C1CCCN(c2nc(N3CCOCC3)c3cccnc3n2)C1 (stereo not drawn) [4h]	< 1500 nM
